From paper PMC3368886, “ATPase Cycle and DNA Unwinding Kinetics of RecG Helicase” (PLoS ONE, 2012) come the findings set out here.

Assay [1] concerns the target T1, RecG with three-strand DNA junction (A40:B40:C19) (Thermotoga maritima, UniProt Q9WY48).
T1 construct: made in house
T1 sequence (Q9WY48 1-780): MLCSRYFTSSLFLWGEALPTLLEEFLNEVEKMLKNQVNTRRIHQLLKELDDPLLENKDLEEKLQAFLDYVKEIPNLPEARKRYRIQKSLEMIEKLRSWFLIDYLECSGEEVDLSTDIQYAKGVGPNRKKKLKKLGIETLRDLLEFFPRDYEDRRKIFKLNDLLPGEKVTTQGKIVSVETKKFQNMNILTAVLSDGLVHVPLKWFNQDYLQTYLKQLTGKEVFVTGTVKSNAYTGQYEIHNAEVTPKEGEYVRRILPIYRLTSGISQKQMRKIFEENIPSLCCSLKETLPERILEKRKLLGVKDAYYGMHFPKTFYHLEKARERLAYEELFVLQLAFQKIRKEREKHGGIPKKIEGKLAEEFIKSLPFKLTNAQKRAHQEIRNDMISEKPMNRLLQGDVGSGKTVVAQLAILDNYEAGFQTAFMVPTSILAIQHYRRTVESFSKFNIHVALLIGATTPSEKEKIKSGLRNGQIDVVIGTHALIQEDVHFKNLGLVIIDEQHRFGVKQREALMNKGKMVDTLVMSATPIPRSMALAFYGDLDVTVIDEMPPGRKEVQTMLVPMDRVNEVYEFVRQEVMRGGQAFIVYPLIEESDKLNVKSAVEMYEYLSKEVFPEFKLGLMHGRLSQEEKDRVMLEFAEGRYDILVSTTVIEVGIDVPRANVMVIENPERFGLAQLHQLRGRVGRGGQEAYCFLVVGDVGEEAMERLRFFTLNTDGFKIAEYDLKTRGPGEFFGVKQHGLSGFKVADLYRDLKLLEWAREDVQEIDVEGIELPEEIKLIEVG
In words: Single turnover ATPase measurements with three-strand junction. The class given is biochemical. The method, then: Therefore, mantATP binding, quench-flow and phosphate measurements were carried out using with sub-stoichiometric mantATP, but with a non-complementary three-strand DNA junction (A40:B40:C19) to form a lagging strand duplex (as defined in Figure 1A). With excess mantATP, the duplex arm of this junction was unwound by the helicase, leaving RecG bound to the two-strand junction with the third strand displaced. With sub-stoichiometric mantATP, there was only a single turnover, so only partial unwinding of this DNA substrate occurred. The kinetics (Figure S2) were similar to those with the two-strand junction with mantATP binding at 4.2 (±0.4) s^−1, hydrolysis at 0.39 (±0.1) s^−1 and fast Pi release.
Supplementary file pone.0038270.s002.tif: Figure S2 Kinetic measurements of mantATP with excess of RecG and a Three-strand DNA Junction. The concentrations for all experiments were 0.5 µM mantATP, 2.5 µM RecG, 5 µM DNA Junction (A40:B40:C19) and 10 µM MDCC-PBP (for Pi measurement). All measurements were carried out under the conditions of Figure 4. Time course of mant fluorescence (continuous line), mantADP formation (circles) and Pi release (dashed line). […] (TIF) Click here for additional data file.

The next assay deals with T2, RecG⋅DNA(A40:B40) (Thermotoga maritima, UniProt Q9WY48).
T2 construct: made in house
T2 sequence (Q9WY48 1-780): T1 sequence (Q9WY48 1-780)
In words: Stopped-flow mant fluorescence: mant nucleotide binding to RecG⋅DNA, pseudo-first-order. The conditions noted are these: 20°C. The protocol:
MantATP binding to RecG⋅DNA(A40:B40) was measured under pseudo-first-order conditions, that is mantATP in large excess over the protein. Using the stopped-flow apparatus, several concentrations of mantATP were rapidly mixed with RecG⋅DNA and fluorescence followed with time. Each trace was fitted by a single exponential (Figure 3A) and the concentration dependence of the observed rate constants were fit well by a hyperbola (Figure 3B). […] As mantATP is also hydrolyzed, the rate of the forward reaction needs to be included, in this case limited by the cleavage step 2, as described later. The fit gives 1/K 1a as 24 (±4) µM, k +1b + k −1b + k +2 as 26.1 (±1.8) s^−1 and the intercept gives k −1b + k +2 as <1 s^−1. Given that k +2 is 0.2 s^–1 (see below), k −1b is <0.8 s^−1. Potentially, an alternative explanation for such a hyperbolic relationship could be preferential binding of either the 2′- or 3′-isomer of mantATP and then isomerization of the non-favored isomer. However, the observed rates in these measurements were several orders of magnitude faster than the likely isomerization rate. In order to assess whether the two isomers of mantATP and their interconversion are factors in any fluorescence traces for mantATP, an equivalent measurement was made using 3′-mant-2′-deoxyATP.
Figure 3 MantATP binding to RecG⋅DNA. MantATP at the micromolar concentrations shown was mixed in the stopped flow apparatus with 0.5 µM RecG and 2.5 µM DNA Junction (A40:B40) at 20°C in the buffer described in materials and methods. Individual traces (offset from each other) were fitted to single exponentials and the dependence of the rate constants on concentration was then fitted by a hyperbola. The points shown are averages of at least 3 measurements. The fit gives 1/K 1a as 24 (±4) µM and k +1b + k− 1b + k +2 as 26.1 (±1.8) s^−1 and the intercept was <1 s^–1 (Scheme in Figure 2B).
MantADP binding to RecG⋅DNA complex was measured under pseudo-first order conditions by stopped-flow fluorescence.
Figure 5 MantADP binding kinetics to RecG⋅DNA. MantADP at various concentrations was mixed in the stopped flow apparatus with 0.5 µM RecG and 2.5 µM DNA (A40:B40) under the conditions of Figure 4. Traces (not shown) were fitted by single exponentials. The rate constants are shown as a function of concentration and the best linear fit, gives a slope of 1.1 (±0.4) µM^−1s^−1 and an intercept of <1 s^−1.
Stopped-flow experiments were performed in a HiTech SF61DX2 apparatus (TgK Scientific Ltd, Bradford-on-Avon, UK) with a mercury-xenon light source and HiTech KinetAsyst 3 or Kinetic Studio 1 software. For MDCC-PBP fluorescence, the excitation wavelength used was 436 nm and a 455 nm cut-off filter (Schott glass) used to collect emitted light. The signal was calibrated using known concentrations of Pi. The solutions contained the Pi mop, to minimize phosphate contamination and comprising 0.01 unit ml^−1 bacterial purine nucleoside phosphorylase and 200 µM 7-methylguanosine. For mant fluorescence, 366 nm was used to excite and a 400 nm cut-off filter (Schott glass) used to collect light. Measurements of Cy3 fluorescence used 547 nm excitation and a 570 nm cut-off filter. In experiments described, the quoted concentrations are those in the mixing chamber, except where stated. Data were fitted to theoretical curves using the HiTech software or Grafit.

The mark [2] stands for this setting: three-strand junction A40:B40:C19, sub-stoichiometric mantATP.

Each structure is given as a SMILES string. A value given as a limit tells only on which side of the number the result lay.

Turning to `CNc1ccccc1C(=O)O[C@H]1[C@@H](O)[C@H](n2cnc3c(N)ncnc32)O[C@@H]1COP(=O)(O)OP(=O)(O)OP(=O)(O)O` [mantATP, 2′(3′)-O-(N-methylanthraniloyl)ATP], in assay [1] (three-strand junction A40:B40:C19, result in words), the Pi release entry is “fast”. In assay [1] (setting [2]), the hydrolysis rate was 0.39 (±0.1) s^−1 and the mantATP binding rate is on record as 4.2 (±0.4) s^−1. Further, on RecG⋅DNA(A40:B40), the “k +1b” value was determined as 25.1 s⁻¹ and the “k −1b” value is under 0.8 s⁻¹. At RecG⋅DNA(A40:B40) (linear fit), the “k −4 (mantADP second order binding rate constant, slope)” value was 1.1e+06 M⁻¹ s⁻¹. Besides, at RecG⋅DNA(A40:B40) (hyperbolic fit), the “intercept, k −1b + k +2” value was under 1 s⁻¹ and the “k +1b + k −1b + k +2” value is given as 26.1 (±1.8) s^−1.
